Patent US8877741B2, “Pyrrolidine derivatives, pharmaceutical compositions and uses thereof” (Boehringer Ingelheim International GmbH, priority 2013, dated 2014)
pIC50: −log10 of the molar value.

Target: human ACC2 (Homo sapiens (Human), UniProt O00763)
Assay: ACC2 assay, spectrophotometric 384 well assay (NADH-linked kinetic method)
Format: biochemical
Conditions: human ACC2 construct lacking the 128 N-terminal amino acids; coupled lactate dehydrogenase/pyruvate kinase reaction, 340 nm, 25° C.
Method: Spectrophotometric 384 Well Assay
Malonyl CoA formation by acetyl CoA carboxylases is stoichometrically linked to the consumption of ATP. ACC2 activity is measured in a NADH-linked kinetic method measuring ADP generated during the ACC reaction using a coupled lactate dehydrogenase/pyruvate kinase reaction.
For biological testing, a human ACC2 construct which lacks the 128 amino acids at the N-terminus for increased solubility (nt 385-6966 in Genbank entry AJ575592) is cloned. The protein is then expressed in insect cells using a baculoviral expression system. Protein purification is performed by anion exchange.
All compounds are dissolved in dimethyl sulfoxide (DMSO) to a concentration of 10 mM.
The enzymatic reaction is then started by addition of a mixture of NADH, acetyl Coenzyme A (both 2000 μM f.c.) and ATP (500 uM f.c.). The decrease of the optical density (slope S) is then determined at 25° C. at a wavelength of 340 nm over 15 minutes in a spectrophotometric reader.
Each assay microtiter plate contains wells with vehicle instead of compound as controls for the non-inhibited enzyme (100% CTL; ‘HIGH’) and wells without acetyl-CoA as controls for non-specific NADH degradation (0% CTL; ‘LOW’).
The slope S is used for calculation of % CTL=(S(compound)−S(‘LOW’))/(S(‘HIGH’)−S(‘LOW’))*100.
For IC50 value determination, the sample slope in the presence of the test compound after subtraction of the low controls (S(compound)−S(‘LOW’)) are used.
An IC50 value is derived from the compound slopes at different dosages after subtraction of the low controls (S(compound)−S(‘LOW’)) by non-linear regression curve fitting (equation y=(A+((B−A)/(1+((C/x)^D))))).

Sequence of human ACC2 (O00763 129-2458): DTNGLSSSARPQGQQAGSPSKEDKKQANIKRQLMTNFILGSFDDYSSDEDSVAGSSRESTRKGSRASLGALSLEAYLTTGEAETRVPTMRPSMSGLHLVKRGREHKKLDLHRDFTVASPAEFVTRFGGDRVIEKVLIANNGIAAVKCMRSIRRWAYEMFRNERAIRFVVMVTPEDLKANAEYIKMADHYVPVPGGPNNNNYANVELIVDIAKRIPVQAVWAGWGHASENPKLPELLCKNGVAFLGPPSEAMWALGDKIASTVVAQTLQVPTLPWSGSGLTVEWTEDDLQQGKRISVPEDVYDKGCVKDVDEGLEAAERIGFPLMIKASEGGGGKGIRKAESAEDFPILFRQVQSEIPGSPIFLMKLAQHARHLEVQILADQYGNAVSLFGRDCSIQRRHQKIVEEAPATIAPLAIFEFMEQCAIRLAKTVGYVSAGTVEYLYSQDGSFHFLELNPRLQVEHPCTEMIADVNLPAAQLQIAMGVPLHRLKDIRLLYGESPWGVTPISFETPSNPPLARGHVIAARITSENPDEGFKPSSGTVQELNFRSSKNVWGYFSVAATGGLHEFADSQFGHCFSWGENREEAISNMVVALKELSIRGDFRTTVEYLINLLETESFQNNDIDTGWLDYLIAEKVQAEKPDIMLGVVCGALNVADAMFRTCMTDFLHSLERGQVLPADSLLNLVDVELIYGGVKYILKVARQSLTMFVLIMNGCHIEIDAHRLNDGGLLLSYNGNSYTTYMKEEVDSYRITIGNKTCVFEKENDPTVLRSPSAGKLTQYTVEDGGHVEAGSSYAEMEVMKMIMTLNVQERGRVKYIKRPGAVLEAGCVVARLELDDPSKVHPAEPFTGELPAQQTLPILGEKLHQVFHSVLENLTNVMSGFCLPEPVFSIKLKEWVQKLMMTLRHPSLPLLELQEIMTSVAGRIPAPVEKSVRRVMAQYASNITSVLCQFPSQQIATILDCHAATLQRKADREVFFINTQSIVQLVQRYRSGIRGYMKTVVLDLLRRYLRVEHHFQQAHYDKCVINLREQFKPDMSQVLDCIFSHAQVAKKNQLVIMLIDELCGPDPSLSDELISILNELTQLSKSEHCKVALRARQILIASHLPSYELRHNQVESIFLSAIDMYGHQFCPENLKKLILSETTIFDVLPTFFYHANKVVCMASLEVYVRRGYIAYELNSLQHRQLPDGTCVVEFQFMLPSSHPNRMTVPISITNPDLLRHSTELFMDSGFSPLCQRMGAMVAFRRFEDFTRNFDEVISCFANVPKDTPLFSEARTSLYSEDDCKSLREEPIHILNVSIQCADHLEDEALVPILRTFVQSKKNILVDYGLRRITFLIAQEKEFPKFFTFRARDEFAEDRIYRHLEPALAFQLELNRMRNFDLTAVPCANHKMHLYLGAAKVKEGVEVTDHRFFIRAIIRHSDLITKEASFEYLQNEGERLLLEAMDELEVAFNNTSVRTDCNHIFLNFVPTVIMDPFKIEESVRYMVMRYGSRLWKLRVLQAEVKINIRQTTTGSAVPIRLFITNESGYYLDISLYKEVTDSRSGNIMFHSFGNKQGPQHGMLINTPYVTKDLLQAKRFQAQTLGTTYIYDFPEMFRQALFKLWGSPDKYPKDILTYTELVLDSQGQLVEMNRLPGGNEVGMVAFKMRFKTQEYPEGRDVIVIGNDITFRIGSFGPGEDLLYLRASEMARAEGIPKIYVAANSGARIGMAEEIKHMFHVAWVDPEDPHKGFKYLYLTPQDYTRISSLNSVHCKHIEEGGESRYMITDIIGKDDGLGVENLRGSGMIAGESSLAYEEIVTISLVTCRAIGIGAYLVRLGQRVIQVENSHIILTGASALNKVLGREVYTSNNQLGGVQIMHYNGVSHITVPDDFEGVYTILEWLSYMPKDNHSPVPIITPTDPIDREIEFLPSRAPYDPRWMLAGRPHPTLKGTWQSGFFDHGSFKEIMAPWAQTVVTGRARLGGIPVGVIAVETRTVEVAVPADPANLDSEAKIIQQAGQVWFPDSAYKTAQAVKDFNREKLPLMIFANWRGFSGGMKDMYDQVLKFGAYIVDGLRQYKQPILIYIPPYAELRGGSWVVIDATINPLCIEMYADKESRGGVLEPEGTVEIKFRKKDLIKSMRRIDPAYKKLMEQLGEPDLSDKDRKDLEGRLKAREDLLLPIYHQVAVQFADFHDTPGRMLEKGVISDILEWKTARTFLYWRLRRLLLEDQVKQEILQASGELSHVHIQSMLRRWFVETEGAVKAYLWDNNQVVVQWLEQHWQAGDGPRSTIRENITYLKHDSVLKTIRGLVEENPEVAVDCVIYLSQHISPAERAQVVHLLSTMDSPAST

Row | pIC50 | Structure (SMILES)
1 | 6.84 | CCCOc1ccc(N2CCC(Oc3ccc([C@H](C)NC(C)=O)cc3)C2)nc1 (some centres unmarked) [Example 1.2]
2 | 6.87 | CC(=O)N[C@@H](C)c1ccc(OC2CCN(c3ccnc(OC(C)C)c3)C2)cc1 (some centres unmarked) [Example 1.3]
3 | 6.71 | CCCOc1ccc(N2CCC(Oc3ccc([C@H](C)NC(C)=O)cc3)C2)cn1 (some centres unmarked) [Example 1.4]
4 | 6.29 | CCOc1ccc(N2CCC(Oc3ccc([C@H](C)NC(C)=O)cc3)C2)cn1 (some centres unmarked) [Example 1.5]
5 | 6.51 | CCOc1ccc(N2CCC(Oc3ccc([C@H](C)NC(C)=O)cc3)C2)nc1 (some centres unmarked) [Example 1.6]
6 | 6.86 | CC(=O)N[C@@H](C)c1ccc(OC2CCN(c3ncc(OCC4CC4)cc3F)C2)cc1 (some centres unmarked) [Example 1.7]
7 | 6.43 | CC(=O)N[C@@H](C)c1ccc(OC2CCN(c3ccc(OCC(C)C)cn3)C2)cc1 (some centres unmarked) [Example 1.8]
8 | 6.25 | CCOc1cnc(N2CCC(Oc3ccc([C@H](C)NC(C)=O)cc3)C2)c(F)c1 (some centres unmarked) [Example 1.9]
9 | 6.08 | CC(=O)N[C@@H](C)c1ccc(OC2CCN(c3ccc(OC(C)C)nc3)C2)cc1 (some centres unmarked) [Example 1.10]
10 | 6.82 | CCCOc1cnc(N2CCC(Oc3ccc([C@H](C)NC(C)=O)cc3)C2)c(F)c1 (some centres unmarked) [Example 1.11]
11 | 6.58 | CCOc1cc(N2CCC(Oc3ccc([C@H](C)NC(C)=O)cc3)C2)ccn1 (some centres unmarked) [Example 1.12]
12 | 6.46 | CCCOc1ccc(N2CCC(Oc3ccc([C@H](C)NC(C)=O)cc3)C2)c(C#N)n1 (some centres unmarked) [Example 1.13]
13 | 6.40 | CC(=O)N[C@@H](C)c1ccc(OC2CCN(c3ccc(OCC4CC4)nc3)C2)cc1 (some centres unmarked) [Example 1.14]
14 | 7.22 | CC(=O)N[C@@H](C)c1ccc(OC2CCN(c3ccnc(OCC4CC4)c3)C2)cc1 (some centres unmarked) [Example 1.15]
15 | 6.94 | CCCOc1cc(N2CCC(Oc3ccc([C@H](C)NC(C)=O)cc3)C2)ccn1 (some centres unmarked) [Example 1.16]
16 | 6.78 | CC(=O)N[C@@H](C)c1ccc(OC2CCN(c3cccc(C)n3)C2)cc1 (some centres unmarked) [Example 1.18]
17 | 7.27 | CC(=O)N[C@@H](C)c1ccc(OC2CCN(c3ccnc(OCC4CC4(F)F)c3)C2)cc1 (some centres unmarked) [Example 1.19]
18 | 7.19 | CC(=O)N[C@@H](C)c1ccc(OC2CCN(c3ncc(OC4CCC4)cc3F)C2)cc1 (some centres unmarked) [Example 1.20]
19 | 6.47 | CC(=O)N[C@@H](C)c1ccc(OC2CCN(c3ccc(OC4CCC4)nc3)C2)cc1 (some centres unmarked) [Example 1.21]
20 | 6.98 | CC(=O)N[C@@H](C)c1ccc(OC2CCN(c3ncc(OC(C)C)cc3F)C2)cc1 (some centres unmarked) [Example 1.22]
21 | 6.94 | CC(=O)N[C@@H](C)c1ccc(OC2CCN(c3ncc(OCC4CC4(F)F)cc3F)C2)cc1 (some centres unmarked) [Example 1.23]
22 | 6.35 | CCOc1cc(N2CCC(Oc3ccc([C@H](C)NC(C)=O)cc3)C2)c(C)cn1 (some centres unmarked) [Example 1.24]
23 | 6.64 | CC(=O)N[C@@H](C)c1ccc(OC2CCN(c3cc(OCC4CC4)ncc3C)C2)cc1 (some centres unmarked) [Example 1.25]

Row | pIC50 | Structure (SMILES)
24 | 6.94 | CC(=O)N[C@@H](C)c1ccc(OC2CCN(c3ccc(OC4CCC4)cn3)C2)cc1 (some centres unmarked) [Example 1.26]
25 | 7.15 | CC(=O)N[C@@H](C)c1ccc(OC2CCN(c3ccc(OC4CCCC4)cn3)C2)cc1 (some centres unmarked) [Example 1.27]
26 | 6.61 | CCC(C)Oc1ccc(N2CCC(Oc3ccc([C@H](C)NC(C)=O)cc3)C2)nc1 (some centres unmarked) [Example 1.28]
27 | 6.89 | CC(=O)N[C@@H](C)c1ccc(OC2CCN(c3ccc(OCCC(F)(F)F)cn3)C2)cc1 (some centres unmarked) [Example 1.29]
28 | 6.93 | CCOc1cc(N2CCC(Oc3ccc([C@H](C)NC(C)=O)cc3)C2)c(F)cn1 (some centres unmarked) [Example 1.30]
29 | 6.86 | CC(=O)N[C@@H](C)c1ccc(OC2CCN(c3ccc(OCCC4CC4)cn3)C2)cc1 (some centres unmarked) [Example 1.31]
30 | 7.30 | CC(=O)N[C@@H](C)c1ccc(OC2CCN(c3ncc(OC4CCCC4)cc3F)C2)cc1 (some centres unmarked) [Example 1.32]
31 | 6.30 | CC(=O)N[C@@H](C)c1ccc(OC2CCN(c3ncc(OCC(F)(F)F)cc3F)C2)cc1 (some centres unmarked) [Example 1.33]
32 | 6.36 | CC(=O)N[C@@H](C)c1ccc(OC2CCN(c3ncc(OCCC4CC4)cc3F)C2)cc1 (some centres unmarked) [Example 1.34]
33 | 6.38 | CC(=O)N[C@@H](C)c1ccc(OC2CCN(c3ccnc(OCC4CC4)c3)C2)cc1 (some centres unmarked) [Example 1.35]
34 | 6.77 | CC(=O)N[C@@H](C)c1ccc(OC2CCN(c3nc(C(F)(F)F)ccc3F)C2)cc1 (some centres unmarked) [Example 1.36]
35 | 6.44 | CCCOc1ccc(N2CCC(Oc3ccc([C@H](C)NC(C)=O)cc3)C2)c(C)n1 (some centres unmarked) [Example 1.37]
36 | 7.02 | CC(=O)N[C@@H](C)c1ccc(OC2CCN(c3cccc(C4CC4)n3)C2)cc1 (some centres unmarked) [Example 1.38]
37 | 6.42 | CCCOc1cnc(N2CCC(Oc3ccc([C@H](C)NC(C)=O)cc3)C2)c(C)c1 (some centres unmarked) [Example 1.39]
38 | 6.11 | CC(=O)N[C@@H](C)c1ccc(OC2CCN(c3cnc(OCC4CC4(F)F)cc3C)C2)cc1 (some centres unmarked) [Example 1.40]
39 | 6.81 | CC(=O)N[C@@H](C)c1ccc(OC2CCN(c3ncc(OCC4CC4)cc3C)C2)cc1 (some centres unmarked) [Example 1.41]
40 | 6.66 | CC(=O)N[C@@H](C)c1ccc(OC2CCN(c3ccc(OCC4CC4(F)F)nc3)C2)cc1 (some centres unmarked) [Example 1.42]
41 | 7.23 | CC(=O)Nc1nc(C)c(C(=O)N[C@@H](C)c2ccc(O[C@@H]3CCN(c4ccnc(OCC5CC5)c4)C3)cc2)s1 [Example 1.43]
42 | 6.59 | CC(=O)N[C@@H](C)c1ccc(OC2CCN(c3nc(C)ccc3F)C2)cc1 (some centres unmarked) [Example 1.44]
43 | 7.19 | CC(=O)Nc1nc(C)c(C(=O)N[C@@H](C)c2ccc(O[C@@H]3CCN(c4cccc(C(F)(F)F)n4)C3)cc2)s1 [Example 1.45]
44 | 6.83 | CCCOc1ccc(N2CC[C@@H](Oc3ccc([C@H](C)NC(=O)c4sc(NC(C)=O)nc4C)cc3)C2)cn1 [Example 1.46]
45 | 6.92 | CCOc1cc(N2CC[C@@H](Oc3ccc([C@H](C)NC(=O)c4sc(NC(C)=O)nc4C)cc3)C2)ccn1 [Example 1.47]
46 | 6.45 | CCCOc1cnc(N2CC[C@@H](Oc3ccc([C@H](C)NC(=O)c4sc(NC(C)=O)nc4C)cc3)C2)c(F)c1 [Example 1.48]

Row | pIC50 | Structure (SMILES)
47 | 6.75 | CC(=O)Nc1nc(C)c(C(=O)N[C@@H](C)c2ccc(O[C@@H]3CCN(c4ccnc(OC(C)C)c4)C3)cc2)s1 [Example 1.49]
48 | 6.77 | CCCOc1ccc(N2CC[C@@H](Oc3ccc([C@H](C)NC(=O)c4sc(NC(C)=O)nc4C)cc3)C2)nc1 [Example 1.50]
49 | 6.40 | CCCOc1cc(C)c(N2CCC(Oc3ccc([C@H](C)NC(C)=O)cc3)C2)cn1 (some centres unmarked) [Example 1.51]
50 | 6.32 | CCOc1cnc(N2CCC(Oc3ccc([C@H](C)NC(C)=O)cc3)C2)c(C)c1 (some centres unmarked) [Example 1.52]
51 | 7.07 | C[C@H](NC(=O)N(C)C)c1ccc(OC2CCN(c3ccnc(OCC4CC4)c3)C2)cc1 (some centres unmarked) [Example 1.53]
52 | 6.85 | C[C@H](NC(=O)N(C)C)c1ccc(OC2CCN(c3ccc(OCC4CC4(F)F)cn3)C2)cc1 (some centres unmarked) [Example 1.54]
53 | 6.81 | C[C@H](NC(=O)N(C)C)c1ccc(OC2CCN(c3ncc(OCC4CC4(F)F)cc3F)C2)cc1 (some centres unmarked) [Example 1.55]
54 | 6.23 | Cc1cnc(OCC2CC2)cc1N1CCC(Oc2ccc([C@H](C)NC(=O)N(C)C)cc2)C1 (some centres unmarked) [Example 1.56]
55 | 6.17 | COc1cccc(N2CCC(Oc3ccc([C@H](C)NC(C)=O)cc3)C2)n1 (some centres unmarked) [Example 1.57]
56 | 7.26 | C[C@H](NC(=O)N(C)C)c1ccc(OC2CCN(c3ccc(F)c(C(F)(F)F)n3)C2)cc1 (some centres unmarked) [Example 1.58]
57 | 6.82 | CC(=O)N[C@@H](C)c1ccc(OC2CCN(c3cccc(C(C)(C)C)n3)C2)cc1 (some centres unmarked) [Example 1.59]
58 | 6.69 | CCc1cccc(N2CCC(Oc3ccc([C@H](C)NC(C)=O)cc3)C2)n1 (some centres unmarked) [Example 1.60]
59 | 6.10 | CCOc1cccc(N2CCC(Oc3ccc([C@H](C)NC(C)=O)cc3)C2)n1 (some centres unmarked) [Example 1.62]
60 | 7.26 | CC(=O)N[C@@H](C)c1ccc(OC2CCN(c3cccc(C(C)C)n3)C2)cc1 (some centres unmarked) [Example 1.63]
61 | 6.81 | CC(=O)N[C@@H](C)c1ccc(OC2CCN(c3cccc(C(F)F)n3)C2)cc1 (some centres unmarked) [Example 1.64]
62 | 6.97 | CC(=O)N[C@@H](C)c1ccc(OC2CCN(c3ccc(F)c(C)n3)C2)cc1 (some centres unmarked) [Example 1.65]
63 | 6.42 | CC(=O)N[C@@H](C)c1ccc(OC2CCN(c3ccc(OC4CC4)cn3)C2)cc1 (some centres unmarked) [Example 1.66]
64 | 6.33 | CC(=O)N[C@@H](C)c1ccc(OC2CCN(c3ncc(OC4CC4)cc3F)C2)cc1 (some centres unmarked) [Example 1.67]
65 | 6.45 | CC(=O)N[C@@H](C)c1ccc(OC2CCN(c3ccnc(Oc4cccnc4)c3)C2)cc1 (some centres unmarked) [Example 1.68]
66 | 6.41 | CSc1ccc(N2CCC(Oc3ccc([C@H](C)NC(C)=O)cc3)C2)nc1 (some centres unmarked) [Example 1.69]
67 | 6.14 | CC(=O)N[C@@H](C)c1ccc(OC2CCN(c3ccc(C4CC4)cn3)C2)cc1 (some centres unmarked) [Example 1.70]

Row | Structure (SMILES) | pIC50
68 | CC(=O)N[C@@H](C)c1ccc(O[C@@H]2CCN(c3ccc(OCC4CC4(F)F)cn3)C2)cc1 (stereo partly drawn) [Example 1.1, N—((1S)-1-(4-((3R)-1-(5-((2,2-Difluorocyclopropyl)methoxy)pyridin-2-yl)pyrrolidin-3-yloxy)phenyl)ethyl)acetamide] | 7.34
